Where a SMILES comes first, the peptide text is derived from it. [ ]: non-standard residue; d: D form. Aib = CC(C)(N)C(=O)O
Key:
human GLP-1R = human GLP-1R (Homo sapiens, UniProt P43220); test: Peptide-receptor mediated cAMP accumulation (LANCE Ultra cAMP) in CHO-K1 cells transfected with human GLP-1R; type: cell-based; conditions: hGLP1 pEC50 (cAMP mean (n = 3): 11 point curve starting at 1 nM, Table 3)
human GCGR = human GCGR (Homo sapiens, UniProt P47871); test: Peptide-receptor mediated cAMP accumulation (LANCE Ultra cAMP) in CHO-K1 cells transfected with human GCGR; type: cell-based; conditions: Table 3
Sequence of human GCGR (P47871 26-477): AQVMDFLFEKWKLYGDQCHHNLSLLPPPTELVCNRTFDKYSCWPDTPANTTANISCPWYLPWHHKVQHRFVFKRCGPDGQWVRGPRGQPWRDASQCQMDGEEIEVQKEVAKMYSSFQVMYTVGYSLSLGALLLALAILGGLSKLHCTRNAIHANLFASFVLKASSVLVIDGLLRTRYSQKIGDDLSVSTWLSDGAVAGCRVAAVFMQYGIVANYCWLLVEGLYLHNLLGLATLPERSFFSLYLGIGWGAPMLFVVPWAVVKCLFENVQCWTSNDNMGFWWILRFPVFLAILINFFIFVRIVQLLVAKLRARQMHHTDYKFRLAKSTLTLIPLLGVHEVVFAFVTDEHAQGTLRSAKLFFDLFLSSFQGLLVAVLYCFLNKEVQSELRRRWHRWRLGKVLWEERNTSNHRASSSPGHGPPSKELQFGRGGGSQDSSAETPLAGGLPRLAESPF

Sequence of human GLP-1R (P43220 24-463): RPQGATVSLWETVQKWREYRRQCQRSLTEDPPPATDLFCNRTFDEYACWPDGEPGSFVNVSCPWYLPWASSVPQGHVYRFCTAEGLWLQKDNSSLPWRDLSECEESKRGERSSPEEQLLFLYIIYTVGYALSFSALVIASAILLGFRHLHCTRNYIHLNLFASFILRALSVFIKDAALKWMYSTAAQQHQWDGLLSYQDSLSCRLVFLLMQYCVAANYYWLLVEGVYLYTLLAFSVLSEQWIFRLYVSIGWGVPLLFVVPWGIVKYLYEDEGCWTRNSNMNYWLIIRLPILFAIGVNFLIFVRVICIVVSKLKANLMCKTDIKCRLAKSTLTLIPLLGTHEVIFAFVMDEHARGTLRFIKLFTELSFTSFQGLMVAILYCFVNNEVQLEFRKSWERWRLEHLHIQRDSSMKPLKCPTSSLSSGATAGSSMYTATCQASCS

## CC(C)C[C@H](NC(=O)[C@H](Cc1ccc(O)cc1)NC(=O)[C@H](CCCCN)NC(=O)[C@H](CO)NC(=O)[C@H](Cc1ccc(O)cc1)NC(=O)[C@H](CC(=O)O)NC(=O)[C@H](CO)NC(=O)[C@@H](NC(=O)[C@H](Cc1ccccc1)NC(=O)[C@@H](NC(=O)CNC(=O)[C@H](Cc1c[nH]cn1)NC(=O)[C@H](CO)NC(=O)[C@@H](N)Cc1ccc(O)cc1)[C@@H](C)O)[C@@H](C)O)C(=O)N[C@@H](CC(=O)O)C(=O)NC(C)(C)C(=O)N[C@@H](CCC(=O)O)C(=O)N[C@@H](CCCNC(=N)N)C(=O)N[C@@H](C)C(=O)N[C@@H](CCC(N)=O)C(=O)N[C@@H](CCC(=O)O)C(=O)N[C@@H](Cc1ccccc1)C(=O)N[C@H](C(=O)NC(C)(C)C(=O)N[C@@H](Cc1c[nH]c2ccccc12)C(=O)N[C@@H](CC(C)C)C(=O)N[C@@H](CCC(=O)O)C(=O)N[C@@H](CC(=O)O)C(=O)N[C@@H](CCC(=O)O)C(=O)N1CCC[C@H]1C(=O)N[C@@H](CO)C(=O)N[C@@H](CO)C(=O)NCC(=O)N[C@@H](C)C(=O)N1CCC[C@H]1C(=O)N1CCC[C@H]1C(=O)N1CCC[C@H]1C(=O)N[C@@H](CO)C(=O)O)C(C)C [Compound A17] (H-YSHGTFTSDYSKYLD[Aib]ERAQEFV[Aib]WLEDEPSSGAPPPS-OH)
Human GLP-1R
  EC50: > 1 nM
Human GCGR
  EC50: 0.00794 nM

## CC(C)C[C@H](NC(=O)[C@H](Cc1c[nH]c2ccccc12)NC(=O)[C@H](CCCCN)NC(=O)[C@H](CO)NC(=O)[C@H](Cc1ccc(O)cc1)NC(=O)[C@H](CC(=O)O)NC(=O)[C@H](CO)NC(=O)[C@@H](NC(=O)[C@H](Cc1ccccc1)NC(=O)[C@@H](NC(=O)CNC(=O)[C@H](Cc1c[nH]cn1)NC(=O)[C@H](CO)NC(=O)[C@@H](N)Cc1ccc(O)cc1)[C@@H](C)O)[C@@H](C)O)C(=O)N[C@@H](CC(=O)O)C(=O)NC(C)(C)C(=O)N[C@@H](CO)C(=O)N[C@@H](CCCNC(=N)N)C(=O)N[C@@H](C)C(=O)N[C@@H](CCC(N)=O)C(=O)N[C@@H](CCC(=O)O)C(=O)N[C@@H](Cc1ccccc1)C(=O)N[C@H](C(=O)NC(C)(C)C(=O)N[C@@H](Cc1c[nH]c2ccccc12)C(=O)N[C@@H](CC(C)C)C(=O)N[C@@H](CCC(=O)O)C(=O)N[C@@H](CC(=O)O)C(=O)N[C@@H](CCC(=O)O)C(=O)N1CCC[C@H]1C(=O)N[C@@H](CO)C(=O)N[C@@H](CO)C(=O)NCC(=O)N[C@@H](C)C(=O)N1CCC[C@H]1C(=O)N1CCC[C@H]1C(=O)N1CCC[C@H]1C(=O)N[C@@H](CO)C(=O)O)C(C)C [Compound A19] (H-YSHGTFTSDYSKWLD[Aib]SRAQEFV[Aib]WLEDEPSSGAPPPS-OH; N-terminus assumed)
Human GLP-1R
  EC50: > 1 nM
Human GCGR
  EC50: 0.01 nM

## CC(C)C[C@H](NC(=O)[C@H](Cc1ccc(O)cc1)NC(=O)[C@H](CCCCN)NC(=O)[C@H](CO)NC(=O)[C@H](Cc1ccc(O)cc1)NC(=O)[C@H](CC(=O)O)NC(=O)[C@H](CO)NC(=O)[C@@H](NC(=O)[C@H](Cc1ccccc1)NC(=O)[C@@H](NC(=O)CNC(=O)[C@H](Cc1c[nH]cn1)NC(=O)[C@H](CO)NC(=O)[C@@H](N)Cc1ccc(O)cc1)[C@@H](C)O)[C@@H](C)O)C(=O)N[C@@H](CC(=O)O)C(=O)NC(C)(C)C(=O)N[C@@H](CCCCN)C(=O)N[C@@H](CCCNC(=N)N)C(=O)N[C@@H](C)C(=O)N[C@@H](CCC(N)=O)C(=O)N[C@@H](CCC(=O)O)C(=O)N[C@@H](Cc1ccccc1)C(=O)N[C@H](C(=O)NC(C)(C)C(=O)N[C@@H](Cc1c[nH]c2ccccc12)C(=O)N[C@@H](CC(C)C)C(=O)N[C@@H](CCC(=O)O)C(=O)N[C@@H](CC(=O)O)C(=O)N[C@@H](CCC(=O)O)C(=O)N1CCC[C@H]1C(=O)N[C@@H](CO)C(=O)N[C@@H](CO)C(=O)NCC(=O)N[C@@H](CCC(=O)O)C(=O)N1CCC[C@H]1C(=O)N1CCC[C@H]1C(=O)N1CCC[C@H]1C(=O)N[C@@H](CO)C(=O)O)C(C)C [Compound A21] (H-YSHGTFTSDYSKYLD[Aib]KRAQEFV[Aib]WLEDEPSSGEPPPS-OH; N-terminus assumed)
Human GLP-1R
  EC50: > 1 nM
Human GCGR
  EC50: 0.00794 nM

## CC(C)C[C@H](NC(=O)[C@H](Cc1ccc(O)cc1)NC(=O)[C@H](CCCCN)NC(=O)[C@H](CO)NC(=O)[C@H](Cc1ccc(O)cc1)NC(=O)[C@H](CC(=O)O)NC(=O)[C@H](CO)NC(=O)[C@@H](NC(=O)[C@H](Cc1ccccc1)NC(=O)[C@@H](NC(=O)CNC(=O)[C@H](Cc1c[nH]cn1)NC(=O)[C@H](CO)NC(=O)[C@@H](N)Cc1ccc(O)cc1)[C@@H](C)O)[C@@H](C)O)C(=O)N[C@@H](CC(=O)O)C(=O)NC(C)(C)C(=O)N[C@@H](CCCCN)C(=O)N[C@@H](CCCNC(=N)N)C(=O)N[C@@H](C)C(=O)N[C@@H](CCC(N)=O)C(=O)N[C@@H](CCC(=O)O)C(=O)N[C@@H](Cc1ccccc1)C(=O)N[C@H](C(=O)NC(C)(C)C(=O)N[C@@H](Cc1c[nH]c2ccccc12)C(=O)N[C@@H](CC(C)C)C(=O)N[C@@H](CCC(=O)O)C(=O)N[C@@H](CC(=O)O)C(=O)N[C@@H](CCC(=O)O)C(=O)N1CCC[C@H]1C(=O)N[C@@H](CO)C(=O)N[C@@H](CO)C(=O)NCC(=O)N[C@@H](CO)C(=O)N1CCC[C@H]1C(=O)N1CCC[C@H]1C(=O)N1CCC[C@H]1C(=O)N[C@@H](CO)C(=O)O)C(C)C [Compound A22] (H-YSHGTFTSDYSKYLD[Aib]KRAQEFV[Aib]WLEDEPSSGSPPPS-OH; N-terminus assumed)
Human GLP-1R
  EC50: > 1 nM
Human GCGR
  EC50: 0.01 nM

## CC(C)C[C@H](NC(=O)[C@H](Cc1ccc(O)cc1)NC(=O)[C@H](CCCCN)NC(=O)[C@H](CO)NC(=O)[C@H](Cc1ccc(O)cc1)NC(=O)[C@H](CC(=O)O)NC(=O)[C@H](CO)NC(=O)[C@@H](NC(=O)[C@H](Cc1ccccc1)NC(=O)[C@@H](NC(=O)CNC(=O)[C@H](Cc1c[nH]cn1)NC(=O)[C@H](CO)NC(=O)[C@@H](N)Cc1ccc(O)cc1)[C@@H](C)O)[C@@H](C)O)C(=O)N[C@@H](CC(=O)O)C(=O)NC(C)(C)C(=O)N[C@@H](CCCCN)C(=O)N[C@@H](CCCNC(=N)N)C(=O)N[C@@H](C)C(=O)N[C@@H](CCC(N)=O)C(=O)N[C@@H](CCC(=O)O)C(=O)N[C@@H](Cc1ccccc1)C(=O)N[C@H](C(=O)NC(C)(C)C(=O)N[C@@H](Cc1c[nH]c2ccccc12)C(=O)N[C@@H](CC(C)C)C(=O)N[C@@H](CCC(=O)O)C(=O)N[C@@H](CC(=O)O)C(=O)N[C@@H](CCC(=O)O)C(=O)N1CCC[C@H]1C(=O)N[C@@H](CO)C(=O)N[C@@H](CO)C(=O)N[C@@H](CCCCN)C(=O)N[C@@H](C)C(=O)N1CCC[C@H]1C(=O)N1CCC[C@H]1C(=O)N1CCC[C@H]1C(=O)N[C@@H](CO)C(=O)O)C(C)C [Compound A23] (H-YSHGTFTSDYSKYLD[Aib]KRAQEFV[Aib]WLEDEPSSKAPPPS-OH; N-terminus assumed)
Human GLP-1R
  EC50: > 1 nM
Human GCGR
  EC50: 0.00631 nM

## CC(C)C[C@H](NC(=O)[C@H](Cc1ccc(O)cc1)NC(=O)[C@H](CCCCN)NC(=O)[C@H](CO)NC(=O)[C@H](Cc1ccc(O)cc1)NC(=O)[C@H](CC(=O)O)NC(=O)[C@H](CO)NC(=O)[C@@H](NC(=O)[C@H](Cc1ccccc1)NC(=O)[C@@H](NC(=O)CNC(=O)[C@H](Cc1c[nH]cn1)NC(=O)[C@H](CO)NC(=O)[C@@H](N)Cc1ccc(O)cc1)[C@@H](C)O)[C@@H](C)O)C(=O)N[C@@H](CC(=O)O)C(=O)NC(C)(C)C(=O)N[C@@H](CCCCN)C(=O)N[C@@H](CCCNC(=N)N)C(=O)N[C@@H](C)C(=O)N[C@@H](CCC(N)=O)C(=O)N[C@@H](CCC(=O)O)C(=O)N[C@@H](Cc1ccccc1)C(=O)N[C@H](C(=O)NC(C)(C)C(=O)N[C@@H](Cc1c[nH]c2ccccc12)C(=O)N[C@@H](CC(C)C)C(=O)N[C@@H](CCC(=O)O)C(=O)N[C@@H](CC(=O)O)C(=O)N[C@@H](CCC(=O)O)C(=O)N1CCC[C@H]1C(=O)N[C@@H](CO)C(=O)N[C@@H](CO)C(=O)NCC(=O)N[C@@H](C)C(=O)N1CCC[C@H]1C(=O)N1CCC[C@H]1C(=O)N1CCC[C@H]1C(=O)N[C@@H](CO)C(=O)N[C@@H](CO)C(=O)O)C(C)C [Compound A25] (H-YSHGTFTSDYSKYLD[Aib]KRAQEFV[Aib]WLEDEPSSGAPPPSS-OH; N-terminus assumed)
Human GLP-1R
  EC50: > 1 nM
Human GCGR
  EC50: 0.00501 nM

## CC(C)C[C@H](NC(=O)[C@H](Cc1ccc(O)cc1)NC(=O)[C@H](CCCCN)NC(=O)[C@H](CO)NC(=O)[C@H](Cc1ccc(O)cc1)NC(=O)[C@H](CC(=O)O)NC(=O)[C@H](CO)NC(=O)[C@@H](NC(=O)[C@H](Cc1ccccc1)NC(=O)[C@@H](NC(=O)CNC(=O)[C@H](Cc1c[nH]cn1)NC(=O)[C@H](CO)NC(=O)[C@@H](N)Cc1ccc(O)cc1)[C@@H](C)O)[C@@H](C)O)C(=O)N[C@@H](CC(=O)O)C(=O)NC(C)(C)C(=O)N[C@@H](CCCCN)C(=O)N[C@@H](CCCNC(=N)N)C(=O)N[C@@H](C)C(=O)N[C@@H](CCC(N)=O)C(=O)N[C@@H](CCC(=O)O)C(=O)N[C@@H](Cc1ccccc1)C(=O)N[C@H](C(=O)NC(C)(C)C(=O)N[C@@H](Cc1c[nH]c2ccccc12)C(=O)N[C@@H](CC(C)C)C(=O)N[C@@H](CCC(=O)O)C(=O)N[C@@H](CC(=O)O)C(=O)N[C@@H](CCC(=O)O)C(=O)N1CCC[C@H]1C(=O)N[C@@H](CO)C(=O)N[C@@H](CO)C(=O)NCC(=O)N[C@@H](C)C(=O)N1CCC[C@H]1C(=O)N1CCC[C@H]1C(=O)N1CCC[C@H]1C(=O)N[C@@H](CO)C(=O)N[C@@H](CCC(=O)O)C(=O)O)C(C)C [Compound A26] (H-YSHGTFTSDYSKYLD[Aib]KRAQEFV[Aib]WLEDEPSSGAPPPSE-OH; N-terminus assumed)
Human GLP-1R
  EC50: > 1 nM
Human GCGR
  EC50: 0.00794 nM

From patent US20240239861A1, “GLUCAGON-RECEPTOR SELECTIVE POLYPEPTIDES AND METHODS OF USE THEREOF” (i2O Therapeutics, Inc., priority 2016, published 2024)
